EC50 data for three compounds are collected here from patent US12440571B2, “Immune agonists” (SHENZHEN UNIVERSITY, priority 2020, dated 2025).

The assay has as its system murine spleen lymphocytes. Briefly: Cytokine stimulation of murine spleen lymphocytes, ELISA. The format is cell-based. As to conditions: Lymphocyte, mouse immune cells (spleen lymphocytes), 24 hrs, ELISA. As for the experimental part:
The stimulating effect of a series of GY compounds or drugs on murine spleen lymphocytes was detected by ELISA.
6-week-old Balb/c mice were sacrificed by cervical dislocation, spleens were taken under aseptic conditions. A 1 mL sterile syringe and a 200 mesh cell strainer were adopted to quickly grind and disperse the spleen into individual cells in 4 mL of a murine lymphocyte separation solution (Dakko's, 7211011). A resulting cell homogenate was transferred to a 15 mL centrifuge tube, then 1 mL of a RPMI 1640 medium (Hyclone, SH30809.01) was slowly added. Spleen lymphocytes were separated by a density gradient centrifugation method (800×g, 30 min), washed, red blood cells therein were lysed, such that a dispersed spleen lymphocyte suspension was obtained. Cells were counted by a hemocytometer, to calculate the cell concentration. A RPMI 1640 complete medium was adopted to adjust the cell suspension to a concentration of 1×10^6/ml/well, and the cells were then plated on a 24-well cell culture plate (Corning, 3524).
Murine spleen lymphocytes were stimulated according to the gradient concentrations of the series of GY compounds or drugs, and incubated in a 37° C., 5% carbon dioxide incubator for 24 hrs.
• (1) Coating: a Capture antibody (primary antibody, purchased from Invitrogen) was diluted with a 1×Coating Buffer (coating buffer, purchased from Invitrogen) to a recommended concentration, and 100 μL of a resulting diluted solution was added to each well of a 96-well microtiter plate, the plate was sealed with a sealing film at 4° C. overnight. • (2) Washing: a liquid in each well was discarded, then 300 μL of a PBST working solution was added to each well and kept for 1 min, thereafter, the liquid therein was discarded. The washing process was repeated 3 times. • (3) Blocking: 200 μL of a blocking solution was added to each well. The plate was sealed with a sealing film, and placed on a shaker and incubated at room temperature for 1 hr, then washed and patted to be dry. • (4) Sample incubation: a sample was collected and centrifuged to collect a supernatant. Standards, samples, negative controls, and blank controls were provided in the 96-well microtiter plate, and each concentration or sample were provided with 2 replicates. 100 μL of a standard or sample was added to each well, thereafter, the plate was sealed with a sealing film, incubated on a shaker at room temperature for 1 hr or overnight at 4° C., then washed and pated to be dry. • (5) Secondary antibody incubation: the detection antibody (secondary antibody, purchased from Invitrogen) was diluted to a recommended concentration with a dilution buffer, 100 μL of a secondary antibody was added to each well. After being sealed with a sealing film, the plate was incubated on a shaker at room temperature for 1 hr, then washed and patted to be dry. • (6) Avidin-HRP incubation: Avidin-HRP (horseradish peroxidase marker, purchased from Invitrogen) was diluted to the recommended concentration with a dilution buffer, 100 μL of Avidin-HRP was added to each well. After being sealed with a sealing film, the plate was placed on a shaker and incubated at room temperature for 30 mins, washed 5-7 times by the process of step 2), and patted to be dry. • (7) TMB color development: 100 μL of a TMB color development solution (purchased from Invitrogen) was added to each well, for carrying out reaction for 15 mins at room temperature in the dark. • (8) Stopping reaction: 50 μL of 1M H2SO4 solution was added to each well. • (9) Reading an absorbance value by a microplate reader: the OD value at 450 nm wavelength was read. A standard curve and a parameter nonlinear regression equation were drawn, and a sample concentration was calculated according to the obtained formula.
On the technique in general: An ELISA detects its analyte on a solid surface through an enzyme-linked reagent.

Where [1] appears, read: read-out: IFN-gamma EC50 of cytokine stimulating activity.
Setting [2] is: read-out: IL-6 EC50 of cytokine stimulating activity.
Setting [3] is: read-out: TNF-alpha EC50 of cytokine stimulating activity.

Like-named read-outs stand apart in the source and are kept apart here.

By EC50 is commonly meant the midpoint of the concentration-response curve. Turning to `CCCCOc1nc(N)c2nc(O)n(Cc3cn(CCOCCOCCOCCNC(=S)N4CCCC(n5nc(-c6ccc(Oc7ccccc7)cc6)c6c(N)ncnc65)C4)nn3)c2n1` (stereo not drawn) [GY112], the concentration giving a half-maximal response (EC50) reads like this: under setting [1], 8300 nM; under setting [2], 314 nM; under setting [3], 914 nM.

In the case of `CCCCOc1nc(N)c2nc(O)n(Cc3cn(CCOCCOCCOCCNC(=S)Nc4cc(Nc5nccc(-c6cn(C)c7ccccc67)n5)c(OC)cc4N(C)CCN(C)C)nn3)c2n1` [GY127], the concentration for a half-maximal effect (EC50) under setting [1] came to 753 nM, the EC50 under setting [2] is 83 nM and the concentration for a half-maximal effect (EC50) under setting [3] was 248 nM.

Consider `CCCCOc1nc(N)c2nc(O)n(Cc3cn(CCCCN4CCN(CCCNC(=S)N5CCCC(n6nc(-c7ccc(Oc8ccccc8)cc7)c7c(N)ncnc76)C5)CC4)nn3)c2n1` (stereo not drawn) [GY161], for which the EC50 came out at 1530 nM under setting [1], 6 nM under setting [2] and 11 nM under setting [3].
